The values that follow come from patent US12447153B2, “HER2 mutation inhibitors” (Array BioPharma Inc., priority 2021, dated 2025).

Data set [1] addresses ErbB2 with Exon 20 YVMA insertion (HER2-YVMA) (Homo sapiens (Human), UniProt P04626, INS775YVMA). Nature of the data set: Cellular Phosphorylation Assay, Assay 4 (constitutive ErbB2 phosphorylation, NIH 3T3 cells). The data set is classed as cell-based.
Data set [2] deals with EGFR (Homo sapiens (Human), UniProt P00533). Nature of the data set: ErbB Enzyme Assay (HTRF KinEASE-TK), Assay 3. It is filed as biochemical.
The target in data set [3] is ErbB2 WT (Homo sapiens (Human), UniProt P04626). The data set can be described thus: ErbB Enzyme Assay (HTRF KinEASE-TK), Assay 2. It is filed as biochemical.
Data set [4] deals with BCRP (Homo sapiens (Human), UniProt Q9UNQ0). Nature of the data set: BCRP MDCKII efflux assay (Assay 7). It is filed as in vitro ADME. As to conditions: dog; efflux ratio Papp(B-A)/Papp(A-B), BCRP MDCKII cells; read-out: Assay 7 Pe Ratio. The protocol: Assay conditions included with and without the BCRP-specific inhibitor, KO143, at a concentration of 0.3 μM to ascertain the contribution of BCRP to the efflux value of the test compound.
Final organic concentration in the assay was 1%.

Data set [5] has as its target EGFR wild type (EGFR WT) (Homo sapiens (Human), UniProt P00533). Nature of the data set: Cellular Phosphorylation Assay, Assay 5 (EGF-stimulated EGFR phosphorylation, NIH 3T3 cells). It is filed as cell-based.
Where [6] appears, read: EGF-stimulated EGFR WT phosphorylation.
[7] abbreviates: cellular ErbB2 YVMA phosphorylation.
[8] abbreviates: cellular EGFR WT phosphorylation, EGF-stimulated.

Sequence of EGFR (P00533 25-1210): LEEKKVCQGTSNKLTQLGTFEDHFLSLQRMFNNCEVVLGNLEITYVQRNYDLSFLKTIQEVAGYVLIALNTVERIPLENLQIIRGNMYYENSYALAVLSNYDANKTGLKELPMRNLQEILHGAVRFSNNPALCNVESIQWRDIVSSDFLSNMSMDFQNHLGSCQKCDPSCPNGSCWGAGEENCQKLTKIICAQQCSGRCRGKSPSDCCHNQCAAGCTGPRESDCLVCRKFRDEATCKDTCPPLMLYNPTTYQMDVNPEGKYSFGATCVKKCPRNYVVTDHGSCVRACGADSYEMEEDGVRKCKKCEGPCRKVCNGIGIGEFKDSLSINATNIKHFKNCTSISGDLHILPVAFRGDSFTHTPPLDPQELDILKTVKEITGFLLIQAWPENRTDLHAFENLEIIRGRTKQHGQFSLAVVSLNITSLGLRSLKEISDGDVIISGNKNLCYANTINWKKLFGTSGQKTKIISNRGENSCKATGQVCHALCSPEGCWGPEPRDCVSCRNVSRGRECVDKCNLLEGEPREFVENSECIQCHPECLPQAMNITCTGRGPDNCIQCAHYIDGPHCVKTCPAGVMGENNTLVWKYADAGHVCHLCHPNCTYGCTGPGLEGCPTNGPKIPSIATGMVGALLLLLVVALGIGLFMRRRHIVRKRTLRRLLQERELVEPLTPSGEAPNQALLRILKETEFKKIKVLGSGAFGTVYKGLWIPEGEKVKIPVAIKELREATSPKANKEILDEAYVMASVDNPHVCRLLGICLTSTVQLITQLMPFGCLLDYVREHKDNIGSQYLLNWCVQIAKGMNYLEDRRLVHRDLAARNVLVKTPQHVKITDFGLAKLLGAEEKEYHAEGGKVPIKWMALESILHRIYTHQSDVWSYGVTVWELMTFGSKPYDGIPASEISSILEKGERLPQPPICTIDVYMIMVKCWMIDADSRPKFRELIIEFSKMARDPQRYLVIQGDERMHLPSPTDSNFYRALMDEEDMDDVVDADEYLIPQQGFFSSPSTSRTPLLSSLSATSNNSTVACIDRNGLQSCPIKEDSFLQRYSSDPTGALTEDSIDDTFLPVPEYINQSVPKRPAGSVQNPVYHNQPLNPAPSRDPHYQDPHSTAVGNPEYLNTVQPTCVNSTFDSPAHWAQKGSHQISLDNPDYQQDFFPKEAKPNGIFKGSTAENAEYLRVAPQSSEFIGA
Sequence of EGFR wild type (EGFR WT) (P00533 25-1210): as above
Sequence of ErbB2 WT (P04626 23-1255): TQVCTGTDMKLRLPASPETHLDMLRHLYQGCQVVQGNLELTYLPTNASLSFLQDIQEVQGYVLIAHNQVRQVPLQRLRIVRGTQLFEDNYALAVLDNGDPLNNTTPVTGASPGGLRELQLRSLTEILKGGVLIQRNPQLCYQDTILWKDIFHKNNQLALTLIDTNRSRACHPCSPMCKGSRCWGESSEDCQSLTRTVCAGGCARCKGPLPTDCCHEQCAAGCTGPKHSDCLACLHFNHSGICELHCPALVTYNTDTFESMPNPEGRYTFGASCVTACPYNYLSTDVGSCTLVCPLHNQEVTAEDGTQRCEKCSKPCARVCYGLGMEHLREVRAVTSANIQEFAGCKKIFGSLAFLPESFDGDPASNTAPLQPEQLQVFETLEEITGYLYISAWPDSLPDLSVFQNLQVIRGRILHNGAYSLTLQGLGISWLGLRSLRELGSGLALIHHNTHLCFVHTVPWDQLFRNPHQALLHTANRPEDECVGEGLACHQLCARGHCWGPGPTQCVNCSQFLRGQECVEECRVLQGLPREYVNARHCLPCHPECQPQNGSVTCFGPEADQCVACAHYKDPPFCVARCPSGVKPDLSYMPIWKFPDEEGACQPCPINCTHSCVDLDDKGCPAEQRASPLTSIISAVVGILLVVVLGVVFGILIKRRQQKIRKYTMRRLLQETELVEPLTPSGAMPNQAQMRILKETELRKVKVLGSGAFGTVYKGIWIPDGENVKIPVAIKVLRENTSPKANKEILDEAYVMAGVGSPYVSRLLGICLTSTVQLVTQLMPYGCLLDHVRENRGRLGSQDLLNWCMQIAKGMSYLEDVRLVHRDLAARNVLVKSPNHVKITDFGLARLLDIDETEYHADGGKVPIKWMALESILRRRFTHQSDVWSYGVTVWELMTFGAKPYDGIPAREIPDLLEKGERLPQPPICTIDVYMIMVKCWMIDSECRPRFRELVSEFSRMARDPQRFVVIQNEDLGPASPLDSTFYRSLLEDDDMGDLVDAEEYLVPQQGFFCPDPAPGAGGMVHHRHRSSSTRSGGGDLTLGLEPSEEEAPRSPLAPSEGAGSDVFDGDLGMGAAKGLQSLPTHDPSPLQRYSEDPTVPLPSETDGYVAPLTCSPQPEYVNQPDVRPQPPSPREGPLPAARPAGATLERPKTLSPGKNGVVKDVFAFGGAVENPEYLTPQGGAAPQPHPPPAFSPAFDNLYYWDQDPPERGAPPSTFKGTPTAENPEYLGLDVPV
Sequence of BCRP (Q9UNQ0 whole entry): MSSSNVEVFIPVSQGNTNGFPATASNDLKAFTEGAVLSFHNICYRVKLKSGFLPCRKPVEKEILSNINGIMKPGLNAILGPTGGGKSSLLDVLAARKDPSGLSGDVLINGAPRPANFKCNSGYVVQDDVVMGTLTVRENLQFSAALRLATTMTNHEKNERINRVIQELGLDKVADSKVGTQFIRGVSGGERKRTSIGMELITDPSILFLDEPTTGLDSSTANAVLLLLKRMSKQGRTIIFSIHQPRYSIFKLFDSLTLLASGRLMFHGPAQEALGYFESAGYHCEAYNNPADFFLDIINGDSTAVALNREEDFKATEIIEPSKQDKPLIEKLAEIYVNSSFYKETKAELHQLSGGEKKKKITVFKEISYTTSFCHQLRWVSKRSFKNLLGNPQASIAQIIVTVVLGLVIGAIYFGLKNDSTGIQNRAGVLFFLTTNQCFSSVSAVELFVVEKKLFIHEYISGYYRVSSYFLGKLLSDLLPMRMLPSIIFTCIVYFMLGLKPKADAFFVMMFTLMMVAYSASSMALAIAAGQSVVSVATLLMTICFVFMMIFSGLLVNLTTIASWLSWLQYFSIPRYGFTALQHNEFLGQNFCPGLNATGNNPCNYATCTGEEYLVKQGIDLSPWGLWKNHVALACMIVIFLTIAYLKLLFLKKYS

On to `C=CC(=O)N1[C@@H]2CC[C@H]1C[C@H](c1ccc3ncnc(Nc4ccc(Oc5ccc6c(c5)ncn6C)c(C)c4F)c3n1)C2` [Example 195, 1-((1R,3s,5S)-3-(4-((2-fluoro-3-methyl-4-((1-methyl-1H-benzo[d]imidazol-5-yl)oxy)phenyl)amino)pyrido[3,2-d]pyrimidin-6-yl)-8-azabicyclo[3.2.1]octan-8-yl)prop-2-en-1-one], for which the IC50 in data set [1] (ErbB2 YVMA phosphorylation) stood at 0.0179 µM; in data set [2] (EGFR enzyme), 2.55 µM; in data set [3] (ErbB2 WT enzyme) it was 0.0597 µM; in data set [5] (setting [6]), 1.06 µM. Also, the efflux ratio at 2 h, 1 µM in data set [4] was 1.7.
In the case of `C=CC(=O)N1CC(c2ccc3ncnc(Nc4cc(C)c(Oc5ccc6c(c5)ncn6C)cc4F)c3n2)CCC12CC2` (centres unmarked) [Example 196, 1-(6-(4-((2-fluoro-5-methyl-4-((1-methyl-1H-benzo[d]imidazol-5-yl)oxy)phenyl)amino)pyrido[3,2-d]pyrimidin-6-yl)-4-azaspiro[2.5]octan-4-yl)prop-2-en-1-one], the IC50 was 0.0338 µM in data set [1] (ErbB2 YVMA phosphorylation), 1.16 µM in data set [2] (EGFR enzyme), 0.0429 µM in data set [3] (ErbB2 WT enzyme) and 2.01 µM in data set [5] (setting [6]). The efflux ratio at 2 h, 1 µM in data set [4] was 2.5.
The matching figures for `C=CC(=O)N1[C@@H]2CC[C@H]1C[C@@H](c1ccc3ncnc(Nc4ccc(Oc5cnc6c(c5)ncn6C)c(C)c4)c3n1)C2` [Example 219, 1-((1R,3r,5S)-3-(4-((3-methyl-4-((3-methyl-3H-imidazo[4,5-b]pyridin-6-yl)oxy)phenyl)amino)pyrido[3,2-d]pyrimidin-6-yl)-8-azabicyclo[3.2.1]octan-8-yl)prop-2-en-1-one]: 0.0201 µM, 3.66 µM, 0.111 µM, at least 5 µM and 9.3.
For `C=CC(=O)N1C[C@H]2CC[C@@H]1CN2c1ccc2ncnc(Nc3ccc(Oc4cnc5c(c4)ncn5C)c(C)c3F)c2n1` [Example 236, 1-((1R,4R)-5-(4-((2-fluoro-3-methyl-4-((3-methyl-3H-imidazo[4,5-b]pyridin-6-yl)oxy)phenyl)amino)pyrido[3,2-d]pyrimidin-6-yl)-2,5-diazabicyclo[2.2.2]octan-2-yl)prop-2-en-1-one] the same measures were 0.0246 µM, at least 10 µM, 1.17 µM, at least 5 µM and 6.8.
As for `C=CC(=O)N1C[C@@H]2C[C@H]1CN(c1ccc3ncnc(Nc4cc(Cl)c(Oc5ccc6c(c5)ncn6C)cc4F)c3n1)C2` [Example 248], the IC50 in data set [1] (ErbB2 YVMA phosphorylation) was 0.0144 µM; in data set [2] (EGFR enzyme), at least 10 µM; in data set [3] (ErbB2 WT enzyme) it was 0.108 µM; in data set [5] (setting [6]), at least 5 µM. In data set [4], the efflux ratio at 2 h, 1 µM came out at 15.2.
Consider `C=CC(=O)N1CCN(c2ccc3ncnc(Nc4ccc(Oc5ccn6ncnc6c5)c(C)c4F)c3n2)C[C@H]1C(C)C` [Example 267], for which the IC50 in data set [1] (setting [7]) was found to be 0.0298 µM; in data set [2] (EGFR enzyme assay), 8.97 µM; in data set [3] (ErbB2 WT enzyme assay), 0.0458 µM; in data set [5] (setting [8]), 1.07 µM. Also, the efflux ratio at 2 h, 1 µM in data set [4] was 1.7.
For `C=CC(=O)N1C[C@@H]2CC(c3ccc4ncnc(Nc5ccc(Oc6ccn7ncnc7c6)c(C)c5F)c4n3)C[C@H]1C2` (some centres unmarked) [Example 268] the same measures were 0.0338 µM, 4.78 µM, 0.156 µM, at least 5 µM and 11.8.
The matching figures for `C=CC(=O)N1CCC(c2ccc3ncnc(Nc4ccc(Oc5cnc6c(c5)ncn6C)c(Cl)c4)c3n2)CC1` [Example 271]: 0.0316 µM, 3.45 µM, 0.0519 µM, at least 5 µM and 37.
On to `C=CC(=O)N1CCC(c2ccc3ncnc(Nc4ccc(Oc5cnc6c(c5)ncn6C)c(C)c4)c3n2)CC1` [Example 273], for which the IC50 in data set [1] (setting [7]) was 0.0257 µM; in data set [2] (EGFR enzyme assay), 5.64 µM; in data set [3] (ErbB2 WT enzyme assay) it was 0.0763 µM; in data set [5] (setting [8]) it was at least 5 µM. The efflux ratio at 2 h, 1 µM in data set [4] amounted to 15.3.
The matching figures for `C=CC(=O)N1CCN(c2ccc3ncnc(Nc4ccc(Oc5cc(F)c6c(c5)ncn6C)c(C)c4)c3n2)CC1` [Example 276]: 0.0067 µM, 0.35 µM, 0.01 µM, 0.302 µM and 25.2.
In the case of `C=CC(=O)N1CCN(c2ccc3ncnc(Nc4ccc(Oc5cc(F)c6c(c5)ncn6C)c(C)c4)c3n2)CC1(C)C` [Example 277], the IC50 in data set [1] (setting [7]) amounted to 0.0125 µM; in data set [2] (EGFR enzyme assay) it was 0.992 µM; in data set [3] (ErbB2 WT enzyme assay), 0.0237 µM; in data set [5] (setting [8]) it was 0.975 µM. Also, in data set [4], the efflux ratio at 2 h, 1 µM came to 7.3.
Turning to `C=CC(=O)N1CC(c2ccc3ncnc(Nc4ccc(Oc5ccn6ncnc6c5)c(C)c4F)c3n2)C1` [Example 280], the concentration for half-maximal inhibition (IC50) was 0.0211 µM in data set [1] (setting [7]), 2.09 µM in data set [2] (EGFR enzyme assay), 0.0504 µM in data set [3] (ErbB2 WT enzyme assay) and 1.89 µM in data set [5] (setting [8]). For the same molecule, the efflux ratio at 2 h, 1 µM in data set [4] worked out at 8.7.
For `C=CC(=O)N1CCN(c2ccc3ncnc(Nc4ccc(Oc5cc(F)c6c(c5)ncn6C)c(C)c4)c3n2)C[C@H]1CC` [Example 282] the same measures were 0.0144 µM, 2.35 µM, 0.0129 µM, 1.23 µM and 7.6.
As to `C=CC(=O)N1[C@H](C)CN(c2ccc3ncnc(Nc4ccc(Oc5ccn6ncnc6c5)c(Cl)c4F)c3n2)C[C@@H]1C` [Example 288], the IC50 in data set [1] (setting [7]) worked out at 0.0105 µM; in data set [2] (EGFR enzyme assay), 1.34 µM; in data set [3] (ErbB2 WT enzyme assay) it was 0.011 µM; in data set [5] (setting [8]) it was 0.778 µM. For the same molecule, the efflux ratio at 2 h, 1 µM in data set [4] was 4.4.
Regarding `C=CC(=O)N1CC2(CCN2c2ccc3ncnc(Nc4ccc(Oc5ccn6ncnc6c5)c(C)c4F)c3n2)C1` [Example 289], the IC50 in data set [1] (setting [7]) was 0.0537 µM; in data set [2] (EGFR enzyme assay) it was 2.87 µM; in data set [3] (ErbB2 WT enzyme assay) it was 0.0224 µM; in data set [5] (setting [8]), at least 5 µM. For the same molecule, the efflux ratio at 2 h, 1 µM in data set [4] was 26.
For `C=CC(=O)N1C[C@H]2C[C@@H]1CN(c1ccc3ncnc(Nc4cc(Cl)c(Oc5ccn6ncnc6c5)cc4F)c3n1)C2` [Example 292] the same measures were 0.071 µM, at least 10 µM, 0.0755 µM, at least 5 µM and 15.6.
As for `C=CC(=O)N1C[C@H]2C[C@@H]1CN(c1ccc3ncnc(Nc4cc(Cl)c(Oc5cnc6c(c5)ncn6C)cc4F)c3n1)C2` [Example 294], the IC50 is 0.0222 µM in data set [1] (setting [7]), at least 10 µM in data set [2] (EGFR enzyme assay), 1.17 µM in data set [3] (ErbB2 WT enzyme assay) and at least 5 µM in data set [5] (setting [8]). Also, in data set [4], the efflux ratio at 2 h, 1 µM was found to be 7.2.
For `C=CC(=O)N1C[C@H]2C[C@@H]1CN(c1ccc3ncnc(Nc4ccc(Oc5ccn6ncnc6c5)c(Cl)c4F)c3n1)C2` [Example 304], the IC50 came to 0.0116 µM in data set [1] (setting [7]), 0.757 µM in data set [2] (EGFR enzyme assay), 0.0169 µM in data set [3] (ErbB2 WT enzyme assay) and 1.67 µM in data set [5] (setting [8]). In addition, the efflux ratio at 2 h, 1 µM in data set [4] came to 13.8.
For `C=CC(=O)N1C[C@@H]2CN(c3ccc4ncnc(Nc5ccc(Oc6ccn7ncnc7c6)c(C)c5F)c4n3)C[C@@H]21` [Example 318] the same measures were 0.0298 µM, 1.38 µM, 0.0473 µM, 2.05 µM and 12.8.
As for `C#CC1CN(c2ccc3ncnc(Nc4ccc(Oc5ccn6ncnc6c5)c(C)c4F)c3n2)CCN1C(=O)C=C` (centres unmarked) [Example 322], the IC50 in data set [1] (setting [7]) worked out at 0.0153 µM; in data set [2] (EGFR enzyme assay), 0.489 µM; in data set [3] (ErbB2 WT enzyme assay), 0.0081 µM; in data set [5] (setting [8]) it was 0.431 µM. For the same molecule, in data set [4], the efflux ratio at 2 h, 1 µM came to 11.3.
For `C=CC(=O)N1C[C@@H]2CN(c3ccc4ncnc(Nc5ccc(Oc6ccc7c(c6)ncn7C)c(C)c5F)c4n3)C[C@@H]21` [Example 323] the same measures were 0.0238 µM, at least 10 µM, 0.0364 µM, at least 5 µM and 6.7.
For `C=CC(=O)N1C2CC1CN(c1ccc3ncnc(Nc4ccc(Oc5ccc6c(c5)ncn6C)c(Cl)c4F)c3n1)C2` [Example 325] the same measures were 0.0116 µM, 0.255 µM, 0.0213 µM, 0.556 µM and 10.3.
For `C=CC(=O)N1C[C@H]2CC[C@@H]1CN2c1ccc2ncnc(Nc3ccc(Oc4ccn5ncnc5c4)c(Cl)c3F)c2n1` [Example 328], the IC50 in data set [1] (setting [7]) is 0.0157 µM; in data set [2] (EGFR enzyme assay) it was 0.692 µM; in data set [3] (ErbB2 WT enzyme assay) it was 0.05 µM; in data set [5] (setting [8]) it was 1.5 µM. Further, the efflux ratio at 2 h, 1 µM in data set [4] worked out at 7.7.
For `C=CC(=O)N1CC2CC(C1)N2c1ccc2ncnc(Nc3ccc(Oc4ccc5c(c4)ncn5C)c(C)c3F)c2n1` [Example 335] the same measures were 0.0154 µM, at least 10 µM, 0.164 µM, at least 5 µM and 3.
Regarding `C=CC(=O)N1CCN(c2ccc3ncnc(Nc4cc(C)c(Oc5ccc6c(c5)ncn6C)cc4F)c3n2)CC12CC2` [Example 340], the IC50 was determined as 0.0196 µM in data set [1] (setting [7]), 0.881 µM in data set [2] (EGFR enzyme assay), 0.0195 µM in data set [3] (ErbB2 WT enzyme assay) and 2.02 µM in data set [5] (setting [8]). Further, in data set [4], the efflux ratio at 2 h, 1 µM amounted to 8.9.

As a reminder, the IC50 is the concentration needed to halve the response being measured. Low values mean inhibition by little substance, high ones a need for much substance.
